From article PMC12022909, “A Multicomponent Reaction-Based Platform Opens New Avenues in Aryl Hydrocarbon Receptor Modulation” (ACS Central Science, 2025) come the findings set out here.

One data set has as its system Jurkat cells. Briefly: Cell viability (Annexin V-APC, flow cytometry) in Jurkat cells. Conditions: 24 h. Format: cell-based. The procedure:
(§1) A phosphatidylserine exposure was used to determine cell viability. Cells were washed with PBS, pelleted, and then incubated with annexin binding buffer containing Annexin V-APC (Life Technologies) for 15 min in the dark. Then, samples were analyzed by flow cytometry using FACSCanto II and FACSDiva (BD Biosciences, Franklin Lakes, NJ, USA). Data represents the percentage of non - apoptotic cells (Ann -APC-).
(§2) The cytotoxicity of a selection of the synthesized compounds was assessed after 24 hours of treatment in two human cell lines, Jurkat and HEK293T, coming from either tumoral T-cell lymphocytes or non-tumoral embryonic kidney fibroblasts, respectively. […]
(§3) the pro-apoptotic activity was not significant below 10 µM for most compounds in both cell lines, except for 5i, 5k and 5l in both cell lines, as well as 9a in Jurkat and 5e HEK293T cells (Figure S35A-B).
(§4) Moreover, the cytotoxicity of compounds 4d, 5b, 5h, 8, 10, and 12d at a higher concentration (100 µM) was assessed in both cell lines, Jurkat and HEK293T. The cytotoxicity of compounds 5b, 5h, and 12d could not be properly tested as the compounds were not soluble […]
(§5) effects observed for compound 4d in Jurkat cells and compound 8 in HEK293T cells (Figure S35C).
(§6) Figure S35. A) Jurkat and B) HEK293T cells were treated with 1 and 10 µM doses of the corresponding compound for 24 hours. Indicated doses of fluorizoline were used as a positive control of cell death. C) Jurkat and HEK293T cells were treated with 100 µM of the corresponding compound for 24 hours. Viability was measured by flow cytometry, and it is expressed as the mean ± SEM (n = 3) of the percentage of non -apoptotic cells (Ann-APC-). * p < 0.05, ** p < 0.01 *** p < […]
(§7) (1 picture or pasted object on this page, not shown here)
(In flow cytometry, cells or beads pass a laser one at a time.)

The subject of another data set is HEK293T cells. Briefly: Cell viability (Annexin V-APC, flow cytometry) in HEK293T cells. Conditions: 24 h. Format: cell-based. The procedure:
as §1, §2, §3, §4, §5, §6, §7

Data set [1] concerns the target T1, aryl hydrocarbon receptor (AhR) (Homo sapiens, UniProt P35869).
T1 construct: AhR-dependent reporter gene activity was determined in human HepG2 cells stably transfected with an XRE; endogenous in cells; host or cells: XRE-HepG2 (human HepG2 hepatoma cells stably carrying an XRE-luciferase plasmid)
T1 sequence (P35869 11-848): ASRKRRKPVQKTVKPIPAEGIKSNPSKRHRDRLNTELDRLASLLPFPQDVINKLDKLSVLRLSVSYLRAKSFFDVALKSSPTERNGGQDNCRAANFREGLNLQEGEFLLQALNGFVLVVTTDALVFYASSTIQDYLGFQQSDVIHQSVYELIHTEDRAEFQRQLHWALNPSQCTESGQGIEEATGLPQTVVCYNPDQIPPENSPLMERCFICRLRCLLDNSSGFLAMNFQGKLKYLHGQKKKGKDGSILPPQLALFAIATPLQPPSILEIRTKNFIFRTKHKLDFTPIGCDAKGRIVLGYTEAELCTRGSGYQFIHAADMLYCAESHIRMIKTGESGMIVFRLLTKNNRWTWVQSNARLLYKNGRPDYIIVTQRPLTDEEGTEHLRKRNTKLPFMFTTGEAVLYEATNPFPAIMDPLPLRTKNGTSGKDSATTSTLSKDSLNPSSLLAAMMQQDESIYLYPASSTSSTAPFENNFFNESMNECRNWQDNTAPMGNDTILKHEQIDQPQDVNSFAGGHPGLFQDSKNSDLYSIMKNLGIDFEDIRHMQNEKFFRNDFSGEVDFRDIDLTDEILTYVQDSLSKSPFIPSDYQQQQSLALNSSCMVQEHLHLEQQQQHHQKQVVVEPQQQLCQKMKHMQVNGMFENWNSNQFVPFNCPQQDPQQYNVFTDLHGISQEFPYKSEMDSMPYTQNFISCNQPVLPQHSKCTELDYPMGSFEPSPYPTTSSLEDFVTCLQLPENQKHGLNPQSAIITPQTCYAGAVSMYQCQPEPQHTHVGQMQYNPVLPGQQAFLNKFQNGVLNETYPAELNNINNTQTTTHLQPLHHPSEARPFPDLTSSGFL
Briefly: AhR/XRE-dependent luciferase reporter gene assay in XRE-HepG2 cells. Format: cell-based. Conditions: XRE-HepG2 cells, 8 h; unit as in the supplements; read-out: AhR/XRE-dependent luciferase activity EC50.
Procedure: (f) AhR/XRE-dependent reporter gene activity results (EC50/μM).
Data are shown as mean ± SEM.
The human XRE -HepG2 reporter cell -line was a kind gift of K. Gradin and L. Poellinger (Karolinska Institute, Stockholm,
antibiotic/antimycotic solution, and 0.8 mg/ml G418. All cells were cultivated at 37 °C in a humidified atmosphere containing 5% CO 2.
AhR-dependent reporter gene activity was determined in human HepG2 cells stably transfected with an XRE -harboring luciferase plasmid (XRE-HepG2 cells). […] Luciferase activity was normalized to protein content.

The next data set concerns the target T2, AhR (Homo sapiens, UniProt P35869).
T2 construct: Degradation of endogenous AhR was further confirmed via Western blotting and global proteomics measurements in cells treated with 12b; host or cells: MCF7
T2 sequence (P35869 11-848): T1 sequence (P35869 11-848)
Briefly: Western blot of AhR in MCF7 cells. The class given is cell-based. Conditions: 10 µM, 5 h. The procedure: Figure S30. Agonists induce degradation of AhR.
12b, 12c, and 12d at a concentration of 10 µM for 5h. The numbers on the Blot indicate the signal intensities of the bands relative to the Tubulin bands, normalized to DMSO treatment as quantified with Empiria Studio. […]
Cell culture and treatment […]
MCF7 cells were purchased from ATCC and grown in DMEM with 10% FCS and 1% penicillin/ streptomycin. […]
All cells were cultivated at 37 °C in a humidified atmosphere containing 5% CO 2.
Tapinarof (MedChemExpress, Monmouth Junction, NJ), benzo[a]pyrene (Sigma-Aldrich, Taufkirchen, Germany), TCDD (Amchro, Hattersheim am Main, Germany) and all compounds synthesized in this study were dissolved in dimethyl sulfoxide (DMSO; Roth). […]
Quantitative real-time PCR […]
• CYP1A1: […] (forward (5'>3')); […] (reverse (5'>3')).
• CYP1B1: […] (forward (5'>3')); […] (reverse (5'>3')).
• CCL26: […] (forward (5'>3')); […] (reverse (5'>3')).
• IL-19: […] (forward (5'>3')); […] (reverse (5'>3')).
• CXCL1: […] (forward (5'>3')); […] (reverse (5'>3')).
• β-actin: […] (forward (5'>3')); […] (reverse (5'>3')). […]
The assay was carried out as described earlier. Luciferase activity was normalized to protein content.
SDS-PAGE/Western blot analysis
Cells were lysed in RIPA buffer on ice and subsequently centrifuged for 15 min at 4 °C at maximum speed. Protein samples were separated by 10% and 12% SDS -polyacrylamide gel electrophoresis and blotted onto PVDF (GE Healthcare, Freiburg, Germany) or Nitrocellulose (BioRad #17 04158) membranes. Blots were blocked with 5% skim milk or bovine serum albumin in TBS -Tween-20 (0.1%) for or Intercept® (TBS) Blocking Buffer (LI -COR Biosciences) 1 h at room temperature and subsequently incubated overnight at 4 °C with primary antibodies. Blots were washed and then incubated for 1 h with a 1:5000 dilution of HRP -conjugated secondary antibodies in 5% bovine serum albumin in TBS -Tween-20 (0.1%) or anti-Mouse (Licor, IRDye® 680RD Goat anti -Mouse IgG, 1:10k dilution) or anti-Rabbit secondary antibody (Licor, IRDye® Goat anti -Rabbit IgG, 1:10k dilution) at room temperature. Bands were visualized using WesternBright ECL HRP substrate (Advansta, San Jose, CA) and a C -DiGit Western Blot Scanner (LI -COR Biotechnology, Lincoln, NE) or a Licor Odyssey CLx imager. Primary antibodies used in this study are as follows. AhR (Cat.No. 83200; Cell Signaling Technology, Leiden, The Netherlands). AIP (Cat.No. sc-59730; Santa Cruz Biotechnology, Dallas, TX). Cul4B (Cat.No. abx004735; Abbexa, Houston, TX). GAPDH (Cat.No. 2118; Cell Signaling Technology). Vinculin (Cat.No. 13901, Cell Signaling Technology). α - Tubulin (Abcam, ab7291, 1:10k dilution).
HaCaT-EV and HaCaT-shAhR cells were treated with either vehicle (DMSO) or 10 µM 12d for 0.5 h and 1 h. […]

The test system of a further data set is HaCaT cells. Briefly: UVA phototoxicity, caspase 3 activity in HaCaT cells. Conditions: for UVA radiation-induced caspase activity (phototoxicity): HaCaT, 1 h, UVA 5 J/cm2. The class given is cell-based, human. As to the method:
Irradiation with UVA and caspase 3 activity measurement […]
culture media was exchanged with PBS and the cells were sham or UVA (5 J/cm2) irradiated using the BS-02 irradiation chamber (Opsytec Dr. Gröbel, Ettlingen Germany). Media was added to the cells and after 4 h incubation, caspase 3 activity was measured as described previously.[33] Protein quantification was done with the Bio-Rad DC protein assay kit (Bio-Rad Laboratories, Hercules, CA) according to the manufacturer protocol.
We compared the phototoxic potential of five of our test compounds (8, 10, 5b, 5h, 4b) as well as the FDA-approved AhR activator […]
induced caspase activity at a concentration of 100 nM (Figure S36A). At a 10-fold higher concentration (1 µM) two of the test compounds […]
Figure S36. […] For statistical analysis a two-way ANOVA (Tukey post-hoc) was performed and data are shown as mean ± SEM. (*, p ≤ 0.05). […]

Data set [2] in a line: Solubility in the growing media during cytotoxicity testing. Format: physicochemical. Conditions: concentration of 100 µM. As to the method: as §1, §2, §3, §4, §5, §6, §7

pEC50: −log10 of the molar value. Entries after “also recorded” stand apart in the source; their conditions may differ.

For the compound `Cn1c2ccccc2c2c(C3=C(O)CC(C)(C)CC3=O)c3c(cc21)c1ccccc1n3C` [4d], the “cytotoxicity / pro-apoptotic activity at 100 µM” value is “slight cytotoxic effects” with Jurkat cells and “minimal pro-apoptotic activity” with HEK293T cells. In data set [1], the pEC50 was 5.88.
In the case of `COc1ccc2[nH]cc(-c3c4[nH]c5ccccc5c4cc4[nH]c5ccccc5c34)c2c1` [5a], the pEC50 in data set [1] was 6.22. The AhR receptor proteolysis result at AhR is reported as “induced receptor proteolysis”.
In the case of `Cn1cc(-c2c3[nH]c4ccccc4c3cc3[nH]c4ccccc4c23)c2ccccc21` [5d], the pEC50 in data set [1] was 6.42. Further, the AhR receptor proteolysis entry at AhR is given as “induced receptor proteolysis”.
The matching figures for `Cc1[nH]c2ccccc2c1-c1c2[nH]c3ccc(F)cc3c2cc2[nH]c3ccc(F)cc3c12` [5k]: 5.56 and “induced receptor proteolysis”.
Take `CC(=O)Nc1ccccc1C(=O)c1c2[nH]c3ccccc3c2cc2[nH]c3ccccc3c12` [compound 10]: the “overlap between effective and toxic concentrations” value with HaCaT cells is on record as “minimal overlap”. For the same compound, the “UVA radiation-induced caspase activity (phototoxicity)” value was “neither tapinarof nor our 6-ICZ compounds enhanced” in the data set on HaCaT cells (100 nM) and “did not show any signs of phototoxicity; also recorded: no phototoxicity” in the data set on HaCaT cells (1 µM). Further, the “cytotoxicity / pro-apoptotic activity at 100 µM” value with Jurkat cells and in the data set on HEK293T cells was “minimal pro-apoptotic activity” throughout. Also, in data set [1], the pEC50 was 6.59. For the same compound, the “solubility in the growing media” value in data set [2] is given as “slight turbidity”.
